{
  "source": "patent US20200306295A1",
  "about": "“METHOD AND DEVICE FOR ANNIHILATION OF Staphylococcus aureus” (priority 2017, published 2020)",
  "key": {"[1]": {"test_system": "stationary-phase MRSA", "format": "cell-based, S. aureus", "details": "for fold reduction of lowest concentration completely inhibiting MRSA growth within 18 hours, with laser treatment: 16 min laser stated for tetracycline, 2-fold or larger is synergy (FICI)", "protocol": "To monitor the response of bacteria to laser treatment alone, antibiotic treatment alone, or their combinations, bacterial growth was continuously monitored overnight (18 hours with an interval of 30 min at 37° C.) by measuring optical density at 600 nm (OD600). Depending on the specific assay applied, the bacterial cells were suspended in 100 or 200 μl TSB medium under different treatment schemes (antibiotic alone, laser treatment alone, antibiotic plus laser treatment) with a final concentration of ˜10^5 CFU/ml. Bacterial growth was defined as OD600≥0.1.\nStationary-phase bacterial cells was washed and resuspended in 1×PBS at its original concentration. […] The treated droplet was collected and resuspended into 5 ml TSB (1:1000 dilution) for each group. Corresponding groups without laser treatment were also conducted for comparison. The bacterial suspensions were transferred to a 96-well plate with antibiotics supplemented into with the first row of the 96-well plate for eight two-fold serial dilution starting at a desired antibiotic concentration (e.g. ofloxacin: 2 μg/ml). After serial dilution, bacterial growth within the same well plate was monitored by a plate reader for 18 hours (OD600, 37° C.). The checkerboard assay was used for groups with laser treatment alone or laser plus antibiotic treatment. Two independent experiments of checkerboard assay were performed for each antibiotic with or without laser treatment. Based on the readout of OD600, a heat map was created to evaluate the antibiotic potentiation or synergistic effect enabled by STX photolysis.\nBased on the checkerboard results, the fractional inhibitory concentration index (FICI), a synergy evaluation method between two antibiotics, was calculated as below: FICI=MIC of antibiotic A in combination/MIC of antibiotic A alone+MIC of antibiotic B in combination/MIC of antibiotic B alone. The interaction of the two antibiotics was defined as below: synergy if FICI≤0.5, no interaction if 0.5<FICI≤4, antagonism if FICI>4^46. […] Considering this reason, the synergy calculation was simplified as below: FICI=MIC of antibiotic A in combination with laser treatment/MIC of antibiotic A alone with synergy defined by FICI≤0.5."}, "[2]": {"test_system": "MRSA NRS384 (MRSA USA 300)", "assay": "MIC by standard broth-dilution method", "format": "cell-based, S. aureus", "text": "For each measurement, three independent replicates were applied."}, "[3]": {"test_system": "stationary-phase MRSA", "assay": "Time-killing assay in PBS with or without pulsed laser (CFU enumeration)", "format": "cell-based, S. aureus", "details": "for synergy of laser treatment with antibiotic against MRSA: 5 min laser plus 10 MIC antibiotic (FIG. 32)", "protocol": "To quantify viable bacterial cells, CFU experiments were performed. 100 μl of sample analyte was transferred into a 96-well plate and then three or four ten-fold serial dilution achieved by transferring 20 μl bacterial culture into 180 μl 1×PBS in the next dilution row. After serial dilution, an aliquot (4 μl) from each well was spotted onto sterile TSA plates. After incubating the plates overnight (˜18 hours) at 37° C., the colonies were enumerated, and cell number was calculated in CFU/ml. For each CFU enumeration experiment, three independent replicates were applied.\nStationary-phase MRSA was prepared, washed and resuspended in 1×PBS at two-times of its original concentration. […] After laser treatment, the droplets were resuspended into 200 μl of 1×PBS (1:40 dilution) supplemented with antibiotics at different concentrations in a mini centrifuge tube (89166-278, VWR international). For example, daptomycin was added into MRSA solution after laser treatment at desired concentration of 0×MIC, 5×MIC, 10×MIC, 30×MIC, or 100×MIC supplemented with 50 μg/ml CaCl2). Corresponding groups without laser treatment were also conducted for comparison. These tubes were incubated within an orbital incubator (37° C., 200 rpm) for different incubation time. At each specific time point, 40 μl of aliquot from each group was transferred to a 96-well plate for follow-up CFU enumerating assay. In the case of tobramycin, additional antibiotic washing by 1×PBS was performed before the CFU experiment to avoid antibiotic interference. For time-killing assay in fresh human whole blood, similar protocol was followed as above, except that 1×PBS was replaced by fresh human whole blood and the initial stationary-phase MRSA solution was diluted by ten times with a concentration of ˜10^7 CFU/ml."}, "[4]": {"test_system": "MRSA", "assay": "microbe, parasite or virus in culture", "format": "cell-based, S. aureus", "details": "for resistance development with laser treatment: 48-day serial passage, sub-MIC antibiotic with 10 min laser; for MIC: Staphylococcus aureus, MRSA", "protocol": "To understand whether laser treatment could cause genotypic or phenotypic change in MRSA, and whether STX photolysis could reduce the resistance development for conventional antibiotics, a serial passage study for each treatment scenario was conducted. The initial generation (Day 1) used in this study was stationary-phase MRSA. The sample was prepared, washed and resuspended in 1×PBS at its original concentration. An aliquot (5 μl) of the MRSA suspension was transferred onto a glass cover slide as a droplet of ˜5 mm in diameter with or without 10 min laser treatment (1 cm diameter illumination area, 120 mW). The droplets were then collected and resuspended into 5 ml of TSB medium (1:1000 dilution) with an estimated cell concentration of 10^5 CFU/ml. To study resistance development or selection induced by laser treatment alone, three groups were included: a group without laser treatment (SPO), a group with laser treatment (SPL1), and another independent group with laser treatment as a duplicate (SPL2). To study resistance development induced by antibiotic treatment alone and laser plus antibiotic treatment, three groups were included for each antibiotic: antibiotic alone-treated group (SPA0), laser plus antibiotic-treated group (SPLA1), and another laser plus antibiotic-treated group as another independent serial passage (SPLA2). For SPO, SPL1, and SPL2, 200 μl of bacterial suspension was directly transferred to each well of a 96-well plate, with three replicates conducted for each group. For SPA0, SPLA1, and SPLA2, 200 μl of bacterial suspension was transferred into the first dilution row of a 96-well plate with supplemented antibiotics at a desired starting concentration, whereas 100 μl of bacterial suspension was transferred to the rest dilution rows. […] Three replicates were applied for each group. These well plates were incubated in a shaker at 37° C. and 200 rpm for 18 hours followed by OD600 measurement by a plate reader. After MICs recording for each group, the well plates were continuously incubated in the shaker for 3 days in total. On Day 4, 200 μl of bacterial sample from each group was collected, washed, and resuspended in 1×PBS at its original concentration used as new inoculum for the next passage following the same protocol as described above. Samples for SPA0, SPLA1, and SPLA2 groups were collected from wells supplemented with sub-MIC antibiotic. Samples for SPO, SPL1, and SPL2 groups were also collected from the well plates. […] Serial passage for all groups were performed for […] with 16 generations in total. Raman spectroscopy was then applied to monitor STX expression level in groups of interest after the entire serial passage experiment. The protocol is detailed as below: 100 μl of ˜400 μl stored bacterial culture was collected, spun down with the supernatant being removed, then resuspended into 5 μl 1×PBS as high-concentration bacterial solution (20 times concentrated). An aliquot (1 μl) was transferred and then sandwiched between two glass cover slides for STX quantification by resonance Raman spectroscopy."}, "[5]": {"test_system": "stationary-phase MRSA", "assay": "Gentamicin-Texas red intracellular uptake assay", "format": "cell-based, S. aureus", "details": "gentamicin conjugated with Texas red, confocal fluorescence", "protocol": "To study laser-mediated intracellular uptake of gentamicin (a representative of aminoglycoside), gentamicin was conjugated with a fluorescent dye, Texas-red, to form gentamicin-Texas red. Briefly, 10 mg of gentamicin was dissolved into 1 ml of 0.1 M sodium bicarbonate buffer (58761-500ML, Sigma Aldrich). 10 mg/ml of Texas red-X succinimidyl ester (T6134, Thermo Fisher Scientific) was added to the gentamicin solution slowly drop by drop. Then the mixed solution was stirred at room temperature for 1 hour. Gentamicin-Texas red was purified through sufficient dialysis against 0.1 M sodium bicarbonate buffer in a dialysis sack (Slide-A-Lyzer G2 Dialysis Cassettes, 2K MWCo, 15 mL, 87719, Thermao Fisher Scientific), and harvested through lyophilization (Labconco). […] After treatment, bacterial droplet was collected into 985 μl of sterile 1×PBS, and then add 10 μl of 1 mg/ml Gentamicin-Texas red. Mixed solution was incubated at 37° C. for 30 min with a shaking speed of 200 rpm. After incubation, MRSA pellets were harvested through washing with sterile 1×PBS twice and then fixed with 10% formalin. […] Quantitative analysis of fluorescence emission intensity from individual MRSA cells was conducted and allocated among groups with different laser treatment time."}, "[6]": {"test_system": "STX in MRSA"}, "[7]": {"details": "read-out: MIC after 48-day serial passage, sub-MIC antibiotic alone"}},
  "note": "“Also recorded” adds a separate entry of the source. Like-named read-outs stand apart in the source and are kept apart here.",
  "data": [
    {"molecule": "Cc1onc(-c2ccccc2)c1C(=O)N[C@@H]1C(=O)N2[C@@H]1SC(C)(C)[C@@H]2C(=O)O", "note": "[Oxacillin, oxacillin]", "values": [
      {"measurement": "antibiotic concentration re-sensitized by laser treatment", "setting": "[1]; laser treatment plus oxacillin", "value": 1, "unit": "µg/mL"},
      {"measurement": "MIC", "setting": "[2]; Staphylococcus aureus, MRSA NRS384 (MRSA USA 300), N = 3, read-out: MIC", "value": 8, "unit": "µg/mL"},
      {"measurement": "synergy of laser treatment with antibiotic against MRSA", "setting": "[3]", "value": "synergy; also recorded: very obvious synergy"}
    ]},
    {"molecule": "NC[C@H]1O[C@H](O[C@H]2[C@H](O)[C@@H](O[C@H]3O[C@H](CO)[C@@H](O)[C@H](N)[C@H]3O)[C@H](N)C[C@@H]2N)[C@H](N)C[C@@H]1O", "note": "[tobramycin]", "values": [
      {"measurement": "resistance development with laser treatment", "setting": "[4]", "value": "resistance inhibition"}
    ]},
    {"molecule": "CC[C@H]1OC(=O)[C@H](C)[C@@H](O[C@H]2C[C@@](C)(OC)[C@@H](O)[C@H](C)O2)[C@H](C)[C@@H](O[C@@H]2O[C@H](C)C[C@H](N(C)C)[C@H]2O)[C@](C)(O)C[C@@H](C)C(=O)[C@H](C)[C@@H](O)[C@]1(C)O", "note": "[Erythromycin]", "values": [
      {"measurement": "MIC", "setting": "[2]; Staphylococcus aureus", "value": 64, "unit": "µg/mL"}
    ]},
    {"molecule": "ramoplanin", "values": [
      {"measurement": "resistance development with laser treatment", "setting": "[4]", "value": "decreased resistance development is not shown"}
    ]},
    {"molecule": "CC(=O)NC[C@H]1CN(c2ccc(N3CCOCC3)c(F)c2)C(=O)O1", "note": "[linezolid]", "values": [
      {"measurement": "fold reduction of lowest concentration completely inhibiting MRSA growth within 18 hours, with laser treatment", "setting": "[1]", "value": 8, "unit": "fold"},
      {"measurement": "resistance development with laser treatment", "setting": "[4]", "value": "resistance inhibition"}
    ]},
    {"molecule": "CO/N=C(\\C(=O)N[C@@H]1C(=O)N2C(C(=O)O)=C(COC(C)=O)CS[C@H]12)c1csc(N)n1", "note": "[cefotaxime]", "values": [
      {"measurement": "synergy of laser treatment with antibiotic against MRSA", "setting": "[3]", "value": "very obvious synergy"},
      {"measurement": "synergy of laser treatment with antibiotic against MRSA", "setting": "[3]; listed as cetotaxine", "value": "synergy"}
    ]},
    {"molecule": "gentamicin", "values": [
      {"measurement": "MIC", "setting": "[2]; MRSA NRS384 (MRSA USA 300), N = 3", "value": 8, "unit": "µg/mL"},
      {"measurement": "resistance development with laser treatment", "setting": "[4]", "value": "Delayed resistance development"},
      {"measurement": "intracellular uptake with laser treatment vs untreated", "setting": "[5]", "value": "significantly more"},
      {"measurement": "synergy of laser treatment with antibiotic against MRSA", "setting": "[3]", "value": "synergy; also recorded: very obvious synergy"},
      {"measurement": "MRSA reduction", "setting": "[3]; pulsed laser treatment combined with antibiotic at 10 MIC (FIG. 32)", "value": "more than 2 log"}
    ]},
    {"molecule": "CN(C/C=C/c1ccccc1)Cc1cccc2ccccc12", "note": "[naftifine]", "values": [
      {"measurement": "second order bleaching constant τ2", "setting": "[6]; naftifine-treated MRSA, τ1=∞, wild-type MRSA 0.16±0.01 s", "value": "0.39 ± 0.07", "unit": "s"},
      {"measurement": "τ2 of naftifine-treated MRSA relative to wild-type MRSA", "setting": "[6]; times longer than wild-type MRSA", "value": 2.5, "unit": "times"}
    ]},
    {"molecule": "CC1COc2c(N3CCN(C)CC3)c(F)cc3c(=O)c(C(=O)O)cn1c23", "note": "(stereo not drawn) [Ofloxacin, ofloxacin]", "values": [
      {"measurement": "fold reduction of lowest concentration completely inhibiting MRSA growth within 18 hours, with laser treatment", "setting": "[1]", "value": 2, "unit": "fold"},
      {"measurement": "MIC", "setting": "[2]; Staphylococcus aureus", "value": 0.5, "unit": "µg/mL"},
      {"measurement": "MIC", "setting": "[4]; [7]", "value": 128, "unit": "µg/mL"}
    ]},
    {"molecule": "O=C(O)c1cn(C2CC2)c2cc(N3CCNCC3)c(F)cc2c1=O", "note": "[ciprofloxacin]", "values": [
      {"measurement": "resistance development with laser treatment", "setting": "[4]", "value": "no resistance"},
      {"measurement": "MIC", "setting": "[4]; [7]", "value": 128, "unit": "µg/mL"},
      {"measurement": "MIC", "setting": "[4]; read-out: MIC over/after 48-day serial passage, sub-MIC antibiotic plus 10 min laser treatment", "value": "≤ 2", "unit": "µg/mL"},
      {"measurement": "synergy of laser treatment with antibiotic against MRSA", "setting": "[3]", "value": "synergy; also recorded: very obvious synergy"}
    ]}
  ]
}
